Measurements taken from patent US11578072B2, “Spiro-lactam NMDA receptor modulators and uses thereof” (Aptinyx Inc., priority 2018, dated 2023).

What was measured:
[1] = system: Sprague Dawley rats; experiment: Porsolt forced swim test; format: in vivo
Procedure: A non-clinical in vivo pharmacology study (Porsolt assay) was performed to measure antidepressant-like effects. The study allowed for the evaluation of the effects of each compound on the Porsolt forced swim test as assessed by the rats' response (reduced floating time) during a 5-minute swimming test.
Male 2-3 month old Sprague Dawley rats were used (Harlan, Indianapolis, Ind.). Rats were housed in Lucite cages with aspen wood chip bedding, maintained on a 12:12 light:dark cycle (lights on at 5 AM), and given ad libitum access to Purina lab chow (USA) and tap water throughout the study.
The Porsolt forced swim test adapted for use in rats was performed as described by Burgdorf et al., (The long-lasting antidepressant effects of rapastinel (GLYX-13) are associated with a metaplasticity process in the medial prefrontal cortex and hippocampus. Neuroscience 308:202-211, 2015). Animals were placed in a 46 cm tall×20 cm in diameter clear glass tube filled to 30 cm with tap water (23±1° C.) for 15 min on the first day (habituation) and 5 min on the subsequent test day. Animals were tested 1 h or 1 week post-dosing with the test compounds or vehicle control (0.5% sodium carboxymethyl cellulose in 0.9% sterile saline). Animals received a 15 min habituation session 1 day before the first 5 min test. Water was changed after every other animal. Animals were videotaped, and floating time as defined as the minimal amount of effort required to keep the animals head above water was scored offline by a blinded experimenter with high inter-rater reliability (Pearson's r>0.9).

[2] = Microsomal stability (Rat); format: in vitro ADME; conditions: rat microsomes, after 60 minutes
Procedure: (§1) Microsomal stability of disclosed compounds was investigated. The following table indicates the percent of compound remaining after 60 minutes.

[3] = Oral pharmacokinetics in rats (plasma, brain, CSF); format: in vivo, Sprague Dawley rats; conditions: rat, oral gavage, 10 mg/kg
Procedure: In another experiment, Sprague Dawley rats were dosed per os (oral gavage) using a normal saline formulation containing 10 mg/kg of the compounds identified in the table below. Plasma, brain, and CSF samples were analyzed at various time points over a 24 hour period. The table below summarizes the results of the oral pharmacokinetics, where the first three values (Tmax, Cmax and AUClast) are plasma values.

[4] = Plasma stability (Human); format: in vitro ADME; conditions: after 60 minutes
Procedure: Plasma stability of disclosed compounds was investigated. The following table indicates the percent of compound remaining after 60 minutes.

[5] = molecular target: T1, NMDAR2C (Homo sapiens, UniProt Q14957); experiment: NMDAR agonist assay, [3H]MK-801 binding, NMDAR2C expressing HEK cell membranes; format: biochemical; conditions: 50 μM glutamate
T1 construct: expressed in transfected cells; host or cells: HEK cells (membrane extract)
T1 sequence (Q14957 20-1233, species assumed, other chains not shown): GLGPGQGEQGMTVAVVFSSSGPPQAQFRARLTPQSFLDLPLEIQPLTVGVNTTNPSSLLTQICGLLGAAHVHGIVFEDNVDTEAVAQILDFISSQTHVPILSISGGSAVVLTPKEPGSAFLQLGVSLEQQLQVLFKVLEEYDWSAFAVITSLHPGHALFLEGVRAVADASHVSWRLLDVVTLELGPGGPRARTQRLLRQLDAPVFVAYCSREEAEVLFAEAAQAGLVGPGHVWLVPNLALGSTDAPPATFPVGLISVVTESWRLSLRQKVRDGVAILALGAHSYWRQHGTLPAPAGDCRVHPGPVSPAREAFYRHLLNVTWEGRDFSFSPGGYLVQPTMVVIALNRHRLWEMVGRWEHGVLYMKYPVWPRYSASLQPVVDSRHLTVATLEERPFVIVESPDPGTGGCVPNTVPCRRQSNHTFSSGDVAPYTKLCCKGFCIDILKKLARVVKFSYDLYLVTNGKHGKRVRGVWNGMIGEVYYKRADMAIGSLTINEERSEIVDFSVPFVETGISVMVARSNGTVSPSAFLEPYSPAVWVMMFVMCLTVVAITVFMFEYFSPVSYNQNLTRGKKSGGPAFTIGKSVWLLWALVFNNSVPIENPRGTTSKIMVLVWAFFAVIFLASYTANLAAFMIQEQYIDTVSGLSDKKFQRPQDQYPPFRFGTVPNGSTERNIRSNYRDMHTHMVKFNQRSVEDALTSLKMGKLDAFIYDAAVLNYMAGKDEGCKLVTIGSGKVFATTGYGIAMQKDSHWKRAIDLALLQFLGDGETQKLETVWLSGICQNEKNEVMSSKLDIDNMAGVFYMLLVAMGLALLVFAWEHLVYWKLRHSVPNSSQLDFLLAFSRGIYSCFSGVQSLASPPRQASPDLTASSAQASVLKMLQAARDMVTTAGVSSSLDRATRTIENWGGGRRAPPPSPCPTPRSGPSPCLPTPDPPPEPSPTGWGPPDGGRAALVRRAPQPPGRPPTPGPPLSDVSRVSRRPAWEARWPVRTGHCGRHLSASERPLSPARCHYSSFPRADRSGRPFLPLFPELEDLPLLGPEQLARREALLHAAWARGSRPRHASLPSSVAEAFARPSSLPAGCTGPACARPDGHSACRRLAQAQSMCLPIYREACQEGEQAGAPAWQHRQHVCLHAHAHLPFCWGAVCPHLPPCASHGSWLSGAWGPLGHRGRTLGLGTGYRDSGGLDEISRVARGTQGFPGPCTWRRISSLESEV
Procedure: (§2) Assays were conducted as described by Moskal et al., “GLYX-13: a monoclonal antibody-derived peptide that acts as an N-methyl-D-aspartate receptor modulator,” Neuropharmacology, 49, 1077-87, 2005. These studies were designed to determine if the test compounds act to facilitate NMDAR activation in NMDAR2A, NMDAR2B, NMDAR2C or NMDAR2D expressing HEK cell membranes as measured by increases in [3H]MK-801 binding.
In the assay, 300 μg of NMDAR expressing HEK cell membrane extract protein was preincubated for 15 minutes at 25° C. in the presence of saturating concentrations of glutamate (50 μM) and varying concentrations of test compound (1×10^−15M-1×10^−7M), or 1 mM glycine. Following the addition of 0.3 μCi of [3H]MK-801 (22.5 Ci/mmol), reactions were again incubated for 15 minutes at 25° C. (nonequilibrium conditions). […]
In analyzing the data, the DPM (disintegrations per minute) of [3H]MK-801 remaining on the filter were measured for each concentration of test compound or for 1 mM glycine. […] The baseline value was determined from the best fit curve of the DPM values modeled using the GraphPad program and the log(agonist) vs. response(three parameters) algorithm was then subtracted from all points in the dataset. The % maximal [3H]MK-801 binding was then calculated relative to that of 1 mM glycine: all baseline subtracted DPM values were divided by the average value for 1 mM glycine. […]

[6] = molecular target: T2, NMDAR2A (Homo sapiens, UniProt Q12879); experiment: NMDAR agonist assay, [3H]MK-801 binding, NMDAR2A expressing HEK cell membranes; format: biochemical; conditions: 50 μM glutamate
T2 construct: expressed in transfected cells; host or cells: HEK cells (membrane extract)
T2 sequence (Q12879 23-1464, species assumed, other chains not shown): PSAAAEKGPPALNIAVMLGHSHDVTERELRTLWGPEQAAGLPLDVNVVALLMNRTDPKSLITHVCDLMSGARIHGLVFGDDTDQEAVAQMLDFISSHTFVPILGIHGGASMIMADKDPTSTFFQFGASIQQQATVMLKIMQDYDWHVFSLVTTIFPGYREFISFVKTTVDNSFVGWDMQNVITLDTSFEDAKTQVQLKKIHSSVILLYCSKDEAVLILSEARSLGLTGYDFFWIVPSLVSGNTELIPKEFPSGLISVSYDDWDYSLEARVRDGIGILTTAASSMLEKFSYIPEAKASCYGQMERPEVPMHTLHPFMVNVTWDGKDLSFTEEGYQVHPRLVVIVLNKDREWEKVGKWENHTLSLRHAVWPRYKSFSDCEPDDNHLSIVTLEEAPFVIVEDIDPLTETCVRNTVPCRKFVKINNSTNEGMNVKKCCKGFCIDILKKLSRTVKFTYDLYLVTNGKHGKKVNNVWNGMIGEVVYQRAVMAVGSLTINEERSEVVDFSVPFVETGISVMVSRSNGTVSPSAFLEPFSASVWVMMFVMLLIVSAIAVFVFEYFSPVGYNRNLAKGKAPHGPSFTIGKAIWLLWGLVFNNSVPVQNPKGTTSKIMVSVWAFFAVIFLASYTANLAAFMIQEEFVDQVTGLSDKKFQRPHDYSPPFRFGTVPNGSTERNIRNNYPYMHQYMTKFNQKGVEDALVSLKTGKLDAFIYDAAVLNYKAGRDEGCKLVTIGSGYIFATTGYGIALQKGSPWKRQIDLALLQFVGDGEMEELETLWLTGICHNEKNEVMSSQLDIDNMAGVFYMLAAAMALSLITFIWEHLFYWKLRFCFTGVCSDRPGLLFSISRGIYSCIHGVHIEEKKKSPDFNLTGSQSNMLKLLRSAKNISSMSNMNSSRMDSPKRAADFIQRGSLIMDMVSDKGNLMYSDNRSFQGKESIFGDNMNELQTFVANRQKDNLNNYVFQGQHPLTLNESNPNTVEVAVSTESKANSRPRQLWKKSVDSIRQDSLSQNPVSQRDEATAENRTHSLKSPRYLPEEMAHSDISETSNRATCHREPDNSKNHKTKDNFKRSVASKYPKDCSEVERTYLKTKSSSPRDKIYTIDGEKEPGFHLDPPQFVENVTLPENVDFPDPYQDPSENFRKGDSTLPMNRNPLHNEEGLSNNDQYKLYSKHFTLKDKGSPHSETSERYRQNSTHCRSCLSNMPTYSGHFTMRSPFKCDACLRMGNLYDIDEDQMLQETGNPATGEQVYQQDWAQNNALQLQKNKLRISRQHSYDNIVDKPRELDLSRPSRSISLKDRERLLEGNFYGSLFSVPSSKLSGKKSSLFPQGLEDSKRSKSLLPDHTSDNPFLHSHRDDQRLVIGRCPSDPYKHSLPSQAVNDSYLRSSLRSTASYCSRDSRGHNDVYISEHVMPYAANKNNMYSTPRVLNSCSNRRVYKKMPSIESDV
Procedure: as §2
(§3) In the assay, 300 μg of NMDAR expressing HEK cell membrane extract protein was preincubated for 15 minutes at 25° C. in the presence of saturating concentrations of glutamate (50 μM) and varying concentrations of test compound (1×10^−15M-1×10^−7M), or 1 mM glycine. Following the addition of 0.3 μCi of [3H]MK-801 (22.5 Ci/mmol), reactions were again incubated for 15 minutes at 25° C. (nonequilibrium conditions). Bound and free [3H]MK-801 were separated via rapid filtration using a Brandel apparatus.
(§4) In analyzing the data, the DPM (disintegrations per minute) of [3H]MK-801 remaining on the filter were measured for each concentration of test compound or for 1 mM glycine. The DPM values for each concentration of a ligand (N=2) were averaged. The baseline value was determined from the best fit curve of the DPM values modeled using the GraphPad program and the log(agonist) vs. response(three parameters) algorithm was then subtracted from all points in the dataset. The % maximal [3H]MK-801 binding was then calculated relative to that of 1 mM glycine: all baseline subtracted DPM values were divided by the average value for 1 mM glycine. The EC50 and % maximal activity were then obtained from the best fit curve of the % maximal [3H]MK-801 binding data modelled using the GraphPad program and the log(agonist) vs. response(three parameters) algorithm.
(§5) The tables below summarize the results for the wild type NMDAR agonists NMDAR2A, NMDAR2B, NMDAR2C, and NMDAR2D, and whether the compound is not an agonist (−), is an agonist (+), or is a strong agonist (++), where column A is based on the % maximal [3H]MK-801 binding relative to 1 mM glycine (−=0; <100%=+; and >100%=++); and column B is based on log EC50 values (0=−; >1×10^−9 M (e.g., −8)=+; and <1×10^−9 M (e.g., −10)++).

[7] = molecular target: T3, NMDAR2B (Homo sapiens, UniProt Q13224); experiment: NMDAR agonist assay, [3H]MK-801 binding, NMDAR2B expressing HEK cell membranes; format: biochemical; conditions: 50 μM glutamate
T3 construct: expressed in transfected cells; host or cells: HEK cells (membrane extract)
T3 sequence (Q13224 27-1484, species assumed, other chains not shown): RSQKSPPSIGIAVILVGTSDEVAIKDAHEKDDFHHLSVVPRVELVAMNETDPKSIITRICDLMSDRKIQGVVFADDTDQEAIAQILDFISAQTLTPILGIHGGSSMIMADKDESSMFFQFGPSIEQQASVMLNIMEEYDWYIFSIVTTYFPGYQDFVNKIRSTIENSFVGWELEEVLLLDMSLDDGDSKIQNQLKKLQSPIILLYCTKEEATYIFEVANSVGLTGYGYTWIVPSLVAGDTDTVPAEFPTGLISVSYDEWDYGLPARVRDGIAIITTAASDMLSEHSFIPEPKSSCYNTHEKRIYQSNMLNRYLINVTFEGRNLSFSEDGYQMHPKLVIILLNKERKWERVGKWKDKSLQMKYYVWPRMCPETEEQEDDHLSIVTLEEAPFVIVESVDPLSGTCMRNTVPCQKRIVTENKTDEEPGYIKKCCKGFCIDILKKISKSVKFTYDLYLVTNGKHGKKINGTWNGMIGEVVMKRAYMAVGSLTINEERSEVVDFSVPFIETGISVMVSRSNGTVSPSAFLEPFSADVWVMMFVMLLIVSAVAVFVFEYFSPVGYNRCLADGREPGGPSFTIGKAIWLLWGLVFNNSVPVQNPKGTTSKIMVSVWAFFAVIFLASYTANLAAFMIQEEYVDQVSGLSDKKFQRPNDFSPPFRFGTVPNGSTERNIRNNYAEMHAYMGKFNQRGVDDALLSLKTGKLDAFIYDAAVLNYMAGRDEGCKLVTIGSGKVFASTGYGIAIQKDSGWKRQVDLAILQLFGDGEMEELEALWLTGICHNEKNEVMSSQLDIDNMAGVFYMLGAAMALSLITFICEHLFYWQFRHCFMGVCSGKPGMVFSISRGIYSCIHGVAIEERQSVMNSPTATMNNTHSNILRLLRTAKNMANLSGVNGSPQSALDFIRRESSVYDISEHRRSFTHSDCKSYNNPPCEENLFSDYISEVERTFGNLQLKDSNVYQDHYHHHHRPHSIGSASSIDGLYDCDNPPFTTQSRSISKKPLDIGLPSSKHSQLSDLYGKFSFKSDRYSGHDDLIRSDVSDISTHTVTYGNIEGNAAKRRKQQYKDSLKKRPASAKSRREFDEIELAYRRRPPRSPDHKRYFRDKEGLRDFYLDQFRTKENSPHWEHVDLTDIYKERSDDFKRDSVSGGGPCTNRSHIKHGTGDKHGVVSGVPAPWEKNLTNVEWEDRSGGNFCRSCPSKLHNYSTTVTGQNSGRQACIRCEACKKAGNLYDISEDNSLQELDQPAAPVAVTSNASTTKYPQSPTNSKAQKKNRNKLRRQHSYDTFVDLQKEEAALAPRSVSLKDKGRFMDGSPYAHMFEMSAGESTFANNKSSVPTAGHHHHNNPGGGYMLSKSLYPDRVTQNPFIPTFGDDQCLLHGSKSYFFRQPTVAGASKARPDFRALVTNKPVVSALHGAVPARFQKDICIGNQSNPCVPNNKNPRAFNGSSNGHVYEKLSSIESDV
Procedure: as §2, §3, §4, §5

[8] = Microsomal stability (Human); format: in vitro ADME; conditions: human microsomes, after 60 minutes
Procedure: as §1

Which results are given for `CC(C)C(=O)N1CCC2(CCCNC2=O)CC1` [Compound AD, 9-isobutyryl-2,9-diazaspiro[5.5]undecan-1-one]?
% reduction in float time ([1]; 0.00001 mg/kg, 1 wk post-dose): 1%; Significance vs. vehicle ([1]; 0.00001 mg/kg, 1 wk post-dose): No; % reduction in float time ([1]; 0.00001 mg/kg, 1 h post-dose): 25%; Significance vs. vehicle ([1]; 0.00001 mg/kg, 1 h post-dose): No; % reduction in float time ([1]; 0.001 mg/kg, 1 wk post-dose): 41%; Significance vs. vehicle ([1]; 0.001 mg/kg, 1 wk post-dose): No; % reduction in float time ([1]; 0.001 mg/kg, 1 h post-dose): 47%; Significance vs. vehicle ([1]; 0.001 mg/kg, 1 h post-dose): Yes; % reduction in float time ([1]; 0.1 mg/kg, 1 wk post-dose): 39%; Significance vs. vehicle ([1]; 0.1 mg/kg, 1 wk post-dose): No; % reduction in float time ([1]; 0.1 mg/kg, 1 h post-dose): 53%; Significance vs. vehicle ([1]; 0.1 mg/kg, 1 h post-dose): Yes; % reduction in float time ([1]; 10.0 mg/kg, 1 wk post-dose): 37%; Significance vs. vehicle ([1]; 10.0 mg/kg, 1 wk post-dose): No; % reduction in float time ([1]; 10.0 mg/kg, 1 h post-dose): 39%; Significance vs. vehicle ([1]; 10.0 mg/kg, 1 h post-dose): Yes; Microsomal (Rat): percent of compound remaining [2]: 100%; bioavailability ([3]; Sprague Dawley, plasma): 70%; AUC(0-t) ([3]; Sprague Dawley, plasma): 18400 ng·h/mL; Cmax ([3]; Sprague Dawley, plasma): 8540 ng/mL; Tmax ([3]; Sprague Dawley, plasma): 19.8 min; CSF Cmax ([3]; CSF): 4697 ng/mL; Brain Cmax ([3]; brain): 4833 ng/mL; Plasma (Human): percent of compound remaining [4]: 98%; NMDAR2C A: % maximal [3H]MK-801 binding relative to 1 mM glycine [5]: + (<100%=+); EC50 ([5]; read-out: NMDAR2C B: log EC50 (converted)): < 1 nM; NMDAR2A A: % maximal [3H]MK-801 binding relative to 1 mM glycine [6]: + (<100%=+); EC50 ([6]; read-out: NMDAR2A B: log EC50 (converted)): < 1 nM; NMDAR2B A: % maximal [3H]MK-801 binding relative to 1 mM glycine [7]: + (<100%=+); EC50 ([7]; read-out: NMDAR2B B: log EC50 (converted)): < 1 nM; Microsomal (Human): percent of compound remaining [8]: 100%
